Measured values as given in patent US6465636B1, “Pathogen-inducible promoter” (Zeneca Mogen B.V., priority 1998, dated 2002).
Like-named read-outs stand apart in the source and are kept apart here.

Test system: ms59 messenger
Assay: Induction of ms59 messengers in sunflower leaves, transcript levels by competitive RT-PCR
Assay type: in vivo, Helianthus annuus cv Zebulon
Conditions: Helianthus annuus, read-out: fold induction of the ms59 messenger relative to the control
Description: Leaves of 7 to 8 weeks old Sunflower plants (Helianthus annuus cv Zebulon) were induced by spraying 5 times with 5 mM salicylic acid (SA), spraying once with 1 mM salicylic acid, once with 0.1 mm jasmonic acid (JA), once with 1 mM ACC (1-aminocyclopropane-1-carboxylic acid, a precursor of the plant hormone ethylene) or wounding. Leaf samples were harvested from induced leaves after 24 hours (1 mM SA, 0.1 mM JA, 1 mM ACC and wounding) and after 5 days (5 mM SA). Control samples were taken at 24 hours after induction in non-induced plants.
Total RNA was extracted from 10 g leaf material using a hot phenol method and purified using the Qiagen RNA buffer set and tip-100 columns (Qiagen GmbH, Germany). Contaminating DNA was degraded using a Dnase I (Gibco BRL) treatment.
cDNA was prepared using 1 μg total RNA, 1 μl oligo(dT)12-18 primers (500 μg/ml, Gibco BRL) and 200 units of Superscript II RT RNAse H reverse transcriptase (Gibco BRL) as described by the manufacturer.
Transcript levels of ms59 were determined using the competitive RT-PCR technology.
PCR MIMIC dilutions were made in a range of […] to 0.01 ag/μl in H2O containing 0.2 μg/μl glycogen as a carrier.
The cDNA samples were analysed in a competitive RT-PCR. Therefore 2 µl of the samples was combined in a 0.5 ml tube with 1 μl diluted PCR MIMIC (amounts; 0.1 pg, 10 fg, 1.0 fg, 0.1 fg, 10 ag and 1.0 ag). Amplification of cDNA and MIMIC was performed using 10 μM of the primers FR-MS59-47 and FR-MS59-77, 0.5 μl 20 mM dNTP's, 1×PCR buffer, MgCl and 2.5 units recombinant Taq DNA polymerase (Gibco BRL) and was allowed to proceed for 35 cycles, 1′ 95° C., 1′ 55° C., 2′ 72° C. PCR products were separated on a 2% agarose gel and visualized by staining with ethidium bromide and a UV illuminator.

Question: For `NC1(C(=O)O)CC1` [ACC, 1-aminocyclopropane-1-carboxylic acid], which fold induction at 1000 µM (24 h) is on record?
Answer: 10

Question: How did the fold induction at 100 µM (24 h) turn out when `CC/C=C\C[C@H]1C(=O)CC[C@@H]1CC(=O)O` [jasmonic acid] was run?
Answer: 10

Question: With `O=C(O)c1ccccc1O` [salicylic acid] as the molecule, how does the fold induction at 5000 µM (120 h, 5 mM, leaves sprayed 5 times, harvested after 5 days) read?
Answer: 1000

Question: And the fold induction at 1000 µM (1 mM, leaves sprayed once, harvested after 24 hours)?
Answer: 1
